Earlier results in patent US20060034774A1, “Galactopyrannosyltriaminetetracarboxylate as ligands for bioactivated paramagnetic metal complexes” (Kaohsiung Medical University, priority 2004, published 2006).
Where two headings read alike, the source gives them in different places.

Molecular target: β-galactosidase (β-gal) (Escherichia coli, UniProt P00722)
Sequence (P00722 2-1024): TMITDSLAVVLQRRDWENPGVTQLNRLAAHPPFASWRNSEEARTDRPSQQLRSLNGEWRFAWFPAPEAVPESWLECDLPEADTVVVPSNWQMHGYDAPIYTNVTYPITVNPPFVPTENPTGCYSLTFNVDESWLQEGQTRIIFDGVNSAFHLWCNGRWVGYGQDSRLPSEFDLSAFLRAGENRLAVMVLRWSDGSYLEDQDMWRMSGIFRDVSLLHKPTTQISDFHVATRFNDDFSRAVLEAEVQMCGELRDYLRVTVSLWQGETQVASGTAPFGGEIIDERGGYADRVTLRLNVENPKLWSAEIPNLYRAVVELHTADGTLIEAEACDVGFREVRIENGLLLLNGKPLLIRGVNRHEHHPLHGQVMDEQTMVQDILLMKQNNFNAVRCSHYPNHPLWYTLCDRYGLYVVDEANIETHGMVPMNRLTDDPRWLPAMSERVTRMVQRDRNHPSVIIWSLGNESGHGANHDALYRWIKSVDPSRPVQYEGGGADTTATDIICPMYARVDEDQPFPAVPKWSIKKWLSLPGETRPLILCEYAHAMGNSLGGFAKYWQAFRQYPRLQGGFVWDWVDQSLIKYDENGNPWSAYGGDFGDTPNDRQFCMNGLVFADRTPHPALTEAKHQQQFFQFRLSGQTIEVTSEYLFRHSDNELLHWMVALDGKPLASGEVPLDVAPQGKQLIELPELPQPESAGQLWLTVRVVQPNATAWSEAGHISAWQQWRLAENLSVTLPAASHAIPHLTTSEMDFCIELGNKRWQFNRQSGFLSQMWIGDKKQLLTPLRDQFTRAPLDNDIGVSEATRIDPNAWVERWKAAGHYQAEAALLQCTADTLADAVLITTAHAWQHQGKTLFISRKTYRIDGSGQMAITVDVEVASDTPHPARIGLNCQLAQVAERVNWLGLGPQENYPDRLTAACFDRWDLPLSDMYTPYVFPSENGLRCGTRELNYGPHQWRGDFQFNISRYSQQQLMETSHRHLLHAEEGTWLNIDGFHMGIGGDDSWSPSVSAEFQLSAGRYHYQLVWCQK

O=C(O)CN1CCN(CCO[C@@H]2O[C@H](CO)[C@H](O)[C@H](O)[C@H]2O)CCN(CC(=O)O)CCN(CC(=O)O)CC1 [Egad, 4,7,10-tri(aceticacid)-1-(2-β-galactopyranosylethoxy)-1,4,7,10-tetraagacyclo dodecane]
number of inner space water molecules (after hydrolysis by β-galactosidase (β-gal)): 1.2 | number of inner space water molecules (before β-galactosidase): 0.7
